In patent US4866039A, “Peptides containing the 18 to 23 residues of vasoactive intestinal peptide, and analogues” (Beecham Group p.l.c., priority 1985, dated 1989):
Residues, ends and D or L forms follow the SMILES beside them.

Test system: rat proximal duodenum
Assay: acid disposal capacity of the rat proximal duodenum (anti-ulcer activity)
Assay type: in vivo
Conditions: anaesthetized male Wistar rats; input pH 2.5, second pass; 150nmol/kg/h i.v. infusion; significance P<0.05
Experimental: Method for estimating the acid disposal capacity of the rat proximal duodenum
Male Wistar rats, 180-250g bodyweight, fasted overnight, are anaesthetized with urethane (150mg/100g bodyweight i.m.). The trachea is cannulated, and a gastric cannula, 0.5cm i.d., 3cm long, is inserted into the non-glandular forestomach via a mid-line abdominal incision. The intragastric cannula is exteriorized via a stab wound in the body wall. A triple lumen catheter, 0.3cm o.d., is passed via the gastric cannula through the pylorus. The duodenum is ligated 1cm below the pylorus, and the pylorus ligated around the cannula, thus creating a 1cm proximal duodenal pouch excluding pancreatic and biliary secretions. The two ligatures enclosing the duodenal pouch are placed so as to avoid occluding the blood supply to the duodenal segment. Gastric secretions are allowed to drain freely from the gastric cannula. Compounds are administered dissolved in 0.9% sodium chloride (saline) as a 1.2 ml/h infusion via a catheter inserted in a jugular vein.
The triple lumen catheter is connected as follows. […]
Lumen 2 collects the perfusate and delivers it to a flow cell containing a pH microelectrode. Outflow pH is recorded throughout the experiment. […]
A group size of 6 animals or larger is used and the effect of compounds on the output pH compared to control data determined. […]

CC(C)C[C@H](NC(=O)[C@H](Cc1ccc(O)cc1)NC(=O)[C@H](CCCCN)NC(=O)[C@H](CCCCN)NC(=O)[C@@H](NC(=O)[C@H](C)N)C(C)C)C(N)=O [Example 1, H-Ala-Val-Lys-Lys-Tyr-Leu-NH2] (H-AVKKYL-NH2)
acid disposal (output pH compared to control): significant increase in acid disposal
